In the OPERA property sets (Mansouri et al. 2018):

Compound	logP
CCCCCc1ccc(O)c(O)c1	3.11
CCCCCCCCCc1ccccc1O	5.76
CCCCCCCCCCCCc1ccc(O)cc1	7.91
CCCCCCCCCCCCCc1cccc(O)c1O	7.75
CCCCCCCCCc1ccc(O)cc1	5.76
CCCCCCCCCCCCCCCc1ccc(O)cc1O	8.29

Continued, values first:

logP	Compound
7.18	CCCCCCCCCCCc1ccc(O)cc1
7.17	CCCCCCCCCCCc1ccccc1O
6.3	CCCCCCCCCCCc1cccc(O)c1O
6.98	CCCCCCCCCCCc1cccc(O)c1
6.84	CCCCCCCCCCCCCc1ccc(O)cc1O
6.97	CCCCCCCCCCCc1ccc(O)c(O)c1
5.61	CCCCCCCCCc1cccc(O)c1
8.61	CCCCCCCCCCCCCc1ccccc1O
